The nature of series [1]: T1 relaxation time by MRI phantom, 4.7 Tesla. The series is classed as physicochemical. The settings on record: same gadolinium concentration, Avg ± SD, n=3.
Series [2] deals with subcutaneous flank SKOV-3 tumors. Kind of series: T1-weighted MRI of tumor accumulation in tumor-bearing mice. The settings on record: IV, gadolinium 0.072 mmoles/kg, SKOV-3 tumor-bearing mice, n=3. In kind it is in vivo, nu/nu mice.

Bounds are passed on as bounds.

Consider `CNC[C@H](O)[C@@H](O)[C@H](O)[C@H](O)CO.CNC[C@H](O)[C@@H](O)[C@H](O)[C@H](O)CO.O=C([O-])CN(CCN(CC(=O)[O-])CC(=O)O)CCN(CC(=O)[O-])CC(=O)O.[Gd+3]` [Magnevist], for which the “T1 Relaxivity” value in series [1] was 22 ms. Further, the “time to clear from the tumor (T1-weighted images)” value in series [2] (Figure 4A) is given as not above 6 h. In series [2] (Figure 4B), the “time to clear from tumor tissues (relative T1 signal, % tumor signal vs time)” value is given as not above 5 h.
